# Values of other authors as cited in article PMC4136950 (Journal of peptide science : an official publication of the …, 2010).
# pIC50: −log10 of the molar value.
# Legend:
# [1] = target: NR2A NMDA receptor subtype (co-expressed with NR1-2b) (Rattus norvegicus, UniProt P35439+Q00959); conditions: read-out: Approximate IC50, NR2A
# [2] = target: NR2B NMDA receptor subtype (co-expressed with NR1-2b) (Rattus norvegicus, UniProt P35439+Q00960); conditions: read-out: Approximate IC50, NR2B
# [3] = target: NR2D NMDA receptor subtype (co-expressed with NR1-2b) (Rattus norvegicus, UniProt P35439+Q62645); conditions: read-out: Approximate IC50, NR2D
# [4] = target: NR2C NMDA receptor subtype (co-expressed with NR1-2b) (Rattus norvegicus, UniProt P35439+Q00961); conditions: read-out: Approximate IC50, NR2C
# [5] = test system: NMDA receptor subtypes NR2(A-D)
# Sequence of NR2B NMDA receptor subtype (co-expressed with NR1-2b) (Q00960 27-1482, other chains not shown): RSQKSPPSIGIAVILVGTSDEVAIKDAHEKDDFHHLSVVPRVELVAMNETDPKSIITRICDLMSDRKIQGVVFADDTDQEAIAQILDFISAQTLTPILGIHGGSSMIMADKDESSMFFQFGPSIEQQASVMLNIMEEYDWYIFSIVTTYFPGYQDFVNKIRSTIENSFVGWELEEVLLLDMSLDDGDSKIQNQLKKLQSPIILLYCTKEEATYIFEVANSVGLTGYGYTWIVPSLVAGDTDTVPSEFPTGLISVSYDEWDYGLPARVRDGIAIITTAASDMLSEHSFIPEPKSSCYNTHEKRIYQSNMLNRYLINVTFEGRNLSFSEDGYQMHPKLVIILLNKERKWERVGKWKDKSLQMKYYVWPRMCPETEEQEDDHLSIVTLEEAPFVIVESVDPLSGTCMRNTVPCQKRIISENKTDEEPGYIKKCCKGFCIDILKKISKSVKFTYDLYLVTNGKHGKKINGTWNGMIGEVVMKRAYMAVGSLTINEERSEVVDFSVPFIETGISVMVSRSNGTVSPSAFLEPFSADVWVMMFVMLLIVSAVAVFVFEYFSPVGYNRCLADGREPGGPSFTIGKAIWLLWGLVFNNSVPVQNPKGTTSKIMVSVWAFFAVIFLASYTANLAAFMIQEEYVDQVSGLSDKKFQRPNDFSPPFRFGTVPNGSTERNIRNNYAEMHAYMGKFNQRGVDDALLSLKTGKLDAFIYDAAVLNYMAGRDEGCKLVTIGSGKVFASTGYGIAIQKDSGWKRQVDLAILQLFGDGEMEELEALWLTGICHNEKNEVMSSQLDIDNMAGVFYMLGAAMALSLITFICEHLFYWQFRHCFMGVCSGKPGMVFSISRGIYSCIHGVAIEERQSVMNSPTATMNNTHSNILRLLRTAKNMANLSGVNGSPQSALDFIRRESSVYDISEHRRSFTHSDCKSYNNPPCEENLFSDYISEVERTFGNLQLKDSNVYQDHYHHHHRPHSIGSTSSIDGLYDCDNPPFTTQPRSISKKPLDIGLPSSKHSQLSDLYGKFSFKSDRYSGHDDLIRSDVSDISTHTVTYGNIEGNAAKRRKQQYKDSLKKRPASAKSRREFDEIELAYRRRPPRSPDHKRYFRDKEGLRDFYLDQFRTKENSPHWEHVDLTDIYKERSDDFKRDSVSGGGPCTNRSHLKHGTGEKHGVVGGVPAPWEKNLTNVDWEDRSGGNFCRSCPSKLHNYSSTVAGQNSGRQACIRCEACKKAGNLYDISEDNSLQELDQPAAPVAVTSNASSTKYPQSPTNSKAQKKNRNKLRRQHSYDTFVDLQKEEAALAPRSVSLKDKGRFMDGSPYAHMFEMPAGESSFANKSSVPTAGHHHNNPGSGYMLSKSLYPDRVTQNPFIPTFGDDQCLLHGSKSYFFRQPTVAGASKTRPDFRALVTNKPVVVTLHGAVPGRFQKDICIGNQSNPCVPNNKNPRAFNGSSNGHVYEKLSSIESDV
# Sequence of NR2C NMDA receptor subtype (co-expressed with NR1-2b) (Q00961 20-1237, other chains not shown): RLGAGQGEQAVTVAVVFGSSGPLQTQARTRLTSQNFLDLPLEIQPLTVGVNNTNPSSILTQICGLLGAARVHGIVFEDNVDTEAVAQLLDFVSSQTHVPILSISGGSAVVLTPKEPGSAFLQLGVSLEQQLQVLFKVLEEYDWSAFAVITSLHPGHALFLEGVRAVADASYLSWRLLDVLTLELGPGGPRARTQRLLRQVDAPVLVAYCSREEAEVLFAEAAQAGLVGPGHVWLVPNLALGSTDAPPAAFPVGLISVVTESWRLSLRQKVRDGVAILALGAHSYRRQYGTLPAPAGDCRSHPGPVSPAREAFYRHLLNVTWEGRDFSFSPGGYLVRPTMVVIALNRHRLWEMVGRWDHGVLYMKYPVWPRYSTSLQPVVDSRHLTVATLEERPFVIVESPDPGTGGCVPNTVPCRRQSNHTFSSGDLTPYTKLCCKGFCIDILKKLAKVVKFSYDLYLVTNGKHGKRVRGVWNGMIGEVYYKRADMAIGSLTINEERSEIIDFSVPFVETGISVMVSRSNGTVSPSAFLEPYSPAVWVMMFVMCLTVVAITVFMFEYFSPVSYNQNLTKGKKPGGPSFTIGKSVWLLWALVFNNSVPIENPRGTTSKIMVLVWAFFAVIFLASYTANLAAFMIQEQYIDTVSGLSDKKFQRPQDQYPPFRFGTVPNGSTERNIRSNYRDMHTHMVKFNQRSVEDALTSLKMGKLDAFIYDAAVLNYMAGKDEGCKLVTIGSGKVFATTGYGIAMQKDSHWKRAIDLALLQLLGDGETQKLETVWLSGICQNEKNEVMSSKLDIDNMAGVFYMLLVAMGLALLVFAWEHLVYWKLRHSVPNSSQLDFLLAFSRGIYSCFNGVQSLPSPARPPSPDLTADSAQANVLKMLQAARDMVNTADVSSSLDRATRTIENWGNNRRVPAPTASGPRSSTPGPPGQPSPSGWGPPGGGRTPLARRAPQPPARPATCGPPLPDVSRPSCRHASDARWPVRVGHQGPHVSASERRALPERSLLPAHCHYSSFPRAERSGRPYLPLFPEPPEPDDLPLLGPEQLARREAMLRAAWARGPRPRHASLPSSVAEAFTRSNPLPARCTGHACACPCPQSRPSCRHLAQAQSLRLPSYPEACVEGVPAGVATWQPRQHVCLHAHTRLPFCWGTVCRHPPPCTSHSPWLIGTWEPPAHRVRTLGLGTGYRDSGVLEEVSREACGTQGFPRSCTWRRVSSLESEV
# Sequence of NR2D NMDA receptor subtype (co-expressed with NR1-2b) (Q62645 28-1323, other chains not shown): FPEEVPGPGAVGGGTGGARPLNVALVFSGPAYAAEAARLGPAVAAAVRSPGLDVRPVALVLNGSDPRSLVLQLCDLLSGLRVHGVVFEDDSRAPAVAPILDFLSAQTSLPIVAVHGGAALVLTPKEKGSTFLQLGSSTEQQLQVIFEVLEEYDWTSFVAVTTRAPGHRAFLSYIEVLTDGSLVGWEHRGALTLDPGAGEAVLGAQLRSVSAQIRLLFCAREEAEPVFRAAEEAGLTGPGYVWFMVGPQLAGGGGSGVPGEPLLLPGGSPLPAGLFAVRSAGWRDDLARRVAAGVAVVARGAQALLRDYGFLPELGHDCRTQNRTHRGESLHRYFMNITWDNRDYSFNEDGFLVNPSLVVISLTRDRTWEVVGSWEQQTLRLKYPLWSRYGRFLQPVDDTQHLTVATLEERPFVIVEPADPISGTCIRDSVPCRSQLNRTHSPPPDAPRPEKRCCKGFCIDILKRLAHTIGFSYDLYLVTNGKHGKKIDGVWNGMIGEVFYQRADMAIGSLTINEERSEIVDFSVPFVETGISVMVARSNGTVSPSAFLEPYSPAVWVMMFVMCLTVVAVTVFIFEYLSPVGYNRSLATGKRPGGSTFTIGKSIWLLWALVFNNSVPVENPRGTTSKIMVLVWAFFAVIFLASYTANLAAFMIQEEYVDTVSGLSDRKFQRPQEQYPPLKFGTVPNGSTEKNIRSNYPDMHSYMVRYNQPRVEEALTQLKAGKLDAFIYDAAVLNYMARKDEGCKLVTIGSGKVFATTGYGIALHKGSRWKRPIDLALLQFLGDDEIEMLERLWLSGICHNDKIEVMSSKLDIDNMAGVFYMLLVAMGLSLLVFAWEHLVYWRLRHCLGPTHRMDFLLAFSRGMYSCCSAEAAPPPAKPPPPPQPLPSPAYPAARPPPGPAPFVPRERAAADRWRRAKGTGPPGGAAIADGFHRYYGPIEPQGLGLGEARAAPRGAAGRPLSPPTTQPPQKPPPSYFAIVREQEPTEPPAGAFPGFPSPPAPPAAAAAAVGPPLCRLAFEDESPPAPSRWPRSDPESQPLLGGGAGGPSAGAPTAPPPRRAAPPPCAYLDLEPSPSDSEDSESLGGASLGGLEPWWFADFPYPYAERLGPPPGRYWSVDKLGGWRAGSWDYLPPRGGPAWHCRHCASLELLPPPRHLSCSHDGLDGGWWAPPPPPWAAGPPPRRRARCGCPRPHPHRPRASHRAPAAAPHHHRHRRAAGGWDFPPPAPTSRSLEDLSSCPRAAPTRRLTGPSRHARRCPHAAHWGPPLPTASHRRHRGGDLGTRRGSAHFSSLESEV
substance,measurement,setting,value
GDγγ YSK FIγ RERγ AGR LDLSKFP^^ [ConBr],pIC50,[1],6.17
same,pIC50,[2],6.85
same,pIC50,[3],6.51
same,pIC50,[4],5.31
same,antagonism of NMDA receptor subtypes,[5],known antagonist of the NR2B and NR2D NMDA receptor subtypes
